The molecules below were run against T1, GPR6 receptor expressed in CHO-K1 cells (Homo sapiens, UniProt P46095) (assay: In vitro inhibition of cAMP (EC50), cell-based HTRF cAMP assay). Conditions: inhibition of constitutive cAMP activity of GPR6 in CHO-K1 cells.
T1 construct: expressed in transfected cells
Method: I. In Vitro Inhibition of cAMP (EC50)
This cell based assay measures the ability of test compounds to inhibit the constitutive cAMP activity of GPR6 receptor expressed in CHO-K1 cells. CHO cells are stably expressed with GPR6 receptor, whose expression is controlled by a tetracycline inducible element. The cells were cultured in medium containing F12K, 10% FBS, 1% Penn/Strep, 200 μg/mL Hygromycin. GPR6 receptor expression is induced for 20 hours with 2 μg/mL doxycycline (Sigma D9891) in growth media. After addition of doxycycline, the cells are plated at a density of 450-750 cells per well in 96-well half-volume black tissue culture plates (Costar) and placed in an incubator (37° C., 5% CO2) for 20 hours prior to cAMP assays.
Culture media is removed from the cells and they are washed with 50 μL/well of Ringer's Buffer (MgCl2 0.047 mg/mL, NaH2PO4 0.18 mg/mL, Na2HPO4 0.1 mg/mL, KCl 0.34 mg/mL, NaHCO3 1.26 mg/mL, D-glucose 1.8 mg/mL, NaCl 7 mg/mL; pH=7.4). The test compounds are suspended in DMSO, diluted in Ringer's Buffer containing 0.5% fatty acid free BSA plus 300 μM IBMX, and incubated on the cells for 45 minutes at 37° C. and 5% CO2. After incubation, the cells are conditioned for 10 minutes at room temp with Eu-cAMP tracer solution from a Perkin Elmer Lance HTRF Ultra cAMP assay kit (TRF0263). Then ULight™-anti-cAMP solution from the Lance HTRF kit is added and incubated on a shaker at room temp for 1 hour prior to HTRF detection in a Perkin Elmer Envision plate reader. EC50 curves are generated with a four-parameter logistic equation using GraphPad Prism 5.03.
Table 1 lists biological assay data (in vitro inhibition of cAMP) for some of the compounds shown in the examples, where larger pEC50 values represent higher activity or potency. All of the compounds shown in Table 1 were tested in accordance with a cell-based assay which measures the ability of test compounds to inhibit the constitutive cAMP activity of GPR6 receptor expressed in CHO-K1 cells (reported as pEC50). The assay is described in the specification under the heading “In vitro inhibition of cAMP (EC50).”

T1 sequence (P46095 whole entry): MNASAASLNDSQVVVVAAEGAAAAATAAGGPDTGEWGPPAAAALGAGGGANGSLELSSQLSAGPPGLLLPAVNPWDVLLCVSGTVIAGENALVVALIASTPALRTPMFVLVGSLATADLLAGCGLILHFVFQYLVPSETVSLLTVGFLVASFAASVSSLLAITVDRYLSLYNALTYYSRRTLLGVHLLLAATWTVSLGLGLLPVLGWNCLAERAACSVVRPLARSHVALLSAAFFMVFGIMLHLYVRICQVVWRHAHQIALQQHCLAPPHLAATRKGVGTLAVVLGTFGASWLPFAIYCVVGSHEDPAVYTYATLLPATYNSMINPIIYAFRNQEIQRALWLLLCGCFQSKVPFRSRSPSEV

Compound | pEC50, in vitro inhibition of cAMP
COc1ccc(OC2CCN(c3ccc(S(C)(=O)=O)cc3NC(=O)c3cn(CCF)nc3OC)CC2)c(F)c1 [Example 1, V-(2-(4-(2-fluoro-4-methoxyphenoxy)piperidin-1-yl)-5-(methylsulfonyl)phenyl)-1-(2-fluoroethyl)-3-methoxy-1H-pyrazole-4-carboxamide] | 7.2
COc1ccc(OC2CCN(c3ccc(S(C)(=O)=O)cc3NC(=O)c3cn(CF)nc3OC)CC2)c(F)c1 [Example 2, N-(2-(4-(2-fluoro-4-methoxyphenoxy)piperidin-1-yl)-5-(methylsulfonyl)phenyl)-1-(fluoromethyl)-3-methoxy-1H-pyrazole-4-carboxamide] | 7.0
Cn1cccc(C(=O)Nc2cc(S(C)(=O)=O)ccc2N2CCC(Oc3ccc(F)cc3F)CC2)c1=O [Example 3, N-(2-(4-(2,4-difluorophenoxy)piperidin-1-yl)-5-(methylsulfonyl)phenyl)-1-methyl-2-oxo-1,2-dihydropyridine-3-carboxamide] | 7.5
Cn1cccc(C(=O)Nc2cc(C#N)ccc2N2CCC(Oc3ccc(F)cc3)CC2)c1=O [Example 4, N-(5-cyano-2-(4-(4-fluorophenoxy)piperidin-1-yl)phenyl)-1-methyl-2-oxo-1,2-dihydropyridine-3-carboxamide] | 6.7
COc1ncccc1C(=O)Nc1cc(S(C)(=O)=O)ccc1N1CCC(Oc2ccc(F)cc2F)CC1 [Example 5, N-(2-(4-(2,4-difluorophenoxy)piperidin-1-yl)-5-(methylsulfonyl)phenyl)-2-methoxynicotinamide] | 7.4
Cn1cccc(C(=O)Nc2cc(C#N)ccc2N2CCC(Oc3ccccc3F)CC2)c1=O [Example 8] | 6.9
Cn1cccc(C(=O)Nc2cc(C#N)ccc2N2CCC(Oc3cccc(F)c3F)CC2)c1=O [Example 9, N-(5-cyano-2-(4-(2,3-difluorophenoxy)piperidin-1-yl)phenyl)-1-methyl-2-oxo-1,2-dihydropyridine-3-carboxamide] | 6.1
COc1c(F)cccc1C(=O)Nc1cc(S(C)(=O)=O)ccc1N1CCC(Oc2ccc(F)cc2F)CC1 [Example 10] | 6.9
COc1cccc(F)c1C(=O)Nc1cc(S(C)(=O)=O)ccc1N1CCC(Oc2ccc(F)cc2F)CC1 [Example 11] | 6.7
Cn1cccc(C(=O)Nc2cc(C#N)ccc2N2CCC(Oc3cccc(F)c3)CC2)c1=O [Example 12, N-(5-cyano-2-(4-(3-fluorophenoxy)piperidin-1-yl)phenyl)-1-methyl-2-oxo-1,2-dihydropyridine-3-carboxamide] | 6.4
Cn1cccc(C(=O)Nc2cc(C#N)ccc2N2CCC(Oc3c(F)cccc3F)CC2)c1=O [Example 13, N-(5-cyano-2-(4-(2,6-difluorophenoxy)piperidin-1-yl)phenyl)-1-methyl-2-oxo-1,2-dihydropyridine-3-carboxamide] | 6.3
Cn1cccc(C(=O)Nc2cc(C#N)ccc2N2CCC(Oc3cc(F)ccc3F)CC2)c1=O [Example 15, N-(5-cyano-2-(4-(2,5-difluorophenoxy)piperidin-1-yl)phenyl)-1-methyl-2-oxo-1,2-dihydropyridine-3-carboxamide] | 7.1
Cn1cccc(C(=O)Nc2cc(C#N)ccc2N2CCC(Oc3ccc(F)c(F)c3)CC2)c1=O [Example 16] | 6.6
Cn1cccc(C(=O)Nc2cnc(Cl)cc2N2CCC(Oc3ccc(F)cc3F)CC2)c1=O [Example 17, N-(6-chloro-4-(4-(2,4-difluorophenoxy)piperidin-1-yl)pyridin-3-yl)-1-methyl-2-oxo-1,2-dihydropyridine-3-carboxamide] | 7.2
CNC(=O)c1cc(N2CCC(Oc3ccc(F)cc3F)CC2)c(NC(=O)c2cccnc2OC)cn1 [Example 19, 4-(4-(2,4-difluorophenoxy)piperidin-1-yl)-5-(2-methoxynicotinamido)-N-methylpicolinamide] | 6.7
COc1cc(N2CCC(Oc3ccc(F)cc3F)CC2)c(NC(=O)c2cnccc2OC)cn1 [Example 21, N-(4-(4-(2,4-difluorophenoxy)piperidin-1-yl)-6-methoxypyridin-3-yl)-4-methoxynicotinamide] | 7.4

Compound | pEC50, in vitro inhibition of cAMP
[2H]C([2H])([2H])N(C(=O)c1cc(N2CCC(Oc3ccc(F)cc3F)CC2)c(NC(=O)c2cccnc2OC)cn1)C([2H])([2H])[2H] [Example 22, 4-(4-(2,4-difluorophenoxy)piperidin-1-yl)-5-(2-methoxynicotinamido)-N,N-bis(methyl-d3)picolinamide] | 7.1
COc1ncc(NC(=O)c2ccc(C)nc2OC)c(N2CCC(Oc3ccc(F)cc3F)CC2)n1 [Example 23, N-(4-(4-(2,4-difluorophenoxy)piperidin-1-yl)-2-methoxypyrimidin-5-yl)-2-methoxy-6-methylnicotinamide] | 6.3
Cc1cc(=O)c(C(=O)Nc2cc(C#N)ccc2N2CCC(Oc3ccc(F)cc3F)CC2)cn1C [Example 24, N-(5-cyano-2-(4-(2,4-difluorophenoxy)piperidin-1-yl)phenyl)-1,6-dimethyl-4-oxo-1,4-dihydropyridine-3-carboxamide] | 6.2
COc1cnccc1C(=O)Nc1cc(C#N)ccc1N1CCC(Oc2ccc(F)cc2F)CC1 [Example 25, N-(5-cyano-2-(4-(2,4-difluorophenoxy)piperidin-1-yl)phenyl)-3-methoxyisonicotinamide] | 7.0
COc1cccnc1C(=O)Nc1cc(C#N)ccc1N1CCC(Oc2ccc(F)cc2F)CC1 [Example 26, N-(5-cyano-2-(4-(2,4-difluorophenoxy)piperidin-1-yl)phenyl)-3-methoxypicolinamide] | 6.4
N#Cc1ccc(N2CCC(Oc3ccc(F)cc3F)CC2)c(NC(=O)c2cccc3c2OCC3)c1 [Example 27, N-(5-cyano-2-(4-(2,4-difluorophenoxy)piperidin-1-yl)phenyl)-2,3-dihydrobenzofuran-7-carboxamide] | 7.4
CCOc1ncccc1C(=O)Nc1cc(C#N)ccc1N1CCC(Oc2ccc(F)cc2F)CC1 [Example 28, N-(5-cyano-2-(4-(2,4-difluorophenoxy)piperidin-1-yl)phenyl)-2-ethoxynicotinamide] | 6.6
COc1ccc(OC2CCN(c3ccc(C#N)cc3NC(=O)c3cccn(C)c3=O)CC2)c(F)c1 [Example 29, N-(5-cyano-2-(4-(2-fluoro-4-methoxyphenoxy)piperidin-1-yl)phenyl)-1-methyl-2-oxo-1,2-dihydropyridine-3-carboxamide] | 7.3
Cn1cccc(C(=O)Nc2ccc(S(C)(=O)=O)cc2N2CCC(Oc3ccc(F)cc3F)CC2)c1=O [Example 30, N-(2-(4-(2,4-difluorophenoxy)piperidin-1-yl)-4-(methylsulfonyl)phenyl)-1-methyl-2-oxo-1,2-dihydropyridine-3-carboxamide] | 7.2
COc1ncc(F)cc1C(=O)Nc1cnc(C(=O)N(C)C)cc1N1CCC(Oc2ccc(F)cc2F)CC1 [Example 32] | 7.0
COCc1cnc(N2CCN(Cc3ccc(F)cc3F)CC2)c(NC(=O)c2cccnc2OC)c1 [Example 33, N-(2-(4-(2,4-difluorobenzyl)piperazin-1-yl)-5-(methoxymethyl)pyridin-3-yl)-2-methoxynicotinamide] | 7.2
COc1ncccc1C(=O)Nc1cc(CO)cnc1N1CCC(Oc2ccc(F)cc2F)CC1 [Example 34, N-(2-(4-(2,4-difluorophenoxy)piperidin-1-yl)-5-(hydroxymethyl)pyridin-3-yl)-2-methoxynicotinamide] | 7.0
COc1ccncc1C(=O)Nc1cc(C)cnc1N1CCC(Oc2ccc(F)cc2F)CC1 [Example 35, N-(2-(4-(2,4-difluorophenoxy)piperidin-1-yl)-5-methylpyridin-3-yl)-4-methoxynicotinamide] | 7.4
COc1nn(C)cc1C(=O)Nc1cc(C)cnc1N1CCC(Oc2ccc(F)cc2F)CC1 [Example 36, N-(2-(4-(2,4-difluorophenoxy)piperidin-1-yl)-5-methylpyridin-3-yl)-3-methoxy-1-methyl-1H-pyrazole-4-carboxamide] | 7.0
COc1ncncc1C(=O)Nc1cc(C#N)ccc1N1CCC(Oc2ccc(F)cc2F)CC1 [Example 37, N-(5-cyano-2-(4-(2,4-difluorophenoxy)piperidin-1-yl)phenyl)-4-methoxypyrimidine-5-carboxamide] | 7.1
